The values below come from ChEMBL document CHEMBL3352382, “New benzimidazole-2-urea derivates as tubulin inhibitors” (Bioorg Med Chem Lett, 2014).

The target in test [1] is T1, Tubulin (Homo sapiens) (UniProt P68371+Q9H4B7+P0DPH7+P68366+Q13509+Q71U36+P04350+Q3ZCM7+P07437+P68363+Q9BQE3+Q6PEY2+Q13885+Q9BVA1+Q9BUF5). Kind of test: Inhibition of tubulin in human NCI-H460 cells assessed as reduction in spindles formation at 100 nM after 8 hrs by immunofluorescence technique. The class given is cell-based.
The target in test [2] is T1, Tubulin (Homo sapiens). Kind of test: Inhibition of tubulin in human NCI-H460 cells assessed as depolymerization of microtubule cytoskeleton after 8 hrs by immunofluorescence technique. The class given is cell-based.
Test [3] can be described thus: Cytotoxicity against human MDA-MB-435S cells assessed as growth inhibition after 72 hrs by CCK-8 assay. It is filed as functional, cell-based.
In the next test the test system is K562. Kind of test: Cytotoxicity against human K562 cells assessed as growth inhibition after 72 hrs by CCK-8 assay. It is filed as functional, cell-based. The note with it: K562, 72 h.
Another test concerns A-431. Kind of test: Cytotoxicity against human A431 cells assessed as growth inhibition after 72 hrs by CCK-8 assay. It is filed as functional, cell-based. The note with it: A-431, 72 h.
The next test has as its system NCI-H460. Kind of test: Cytotoxicity against human NCI-H460 cells assessed as growth inhibition by MTT assay. The class given is functional, cell-based.
A further test concerns HepG2. Kind of test: Cytotoxicity against human HepG2 cells assessed as growth inhibition after 72 hrs by CCK-8 assay. It is filed as functional, cell-based. The note with it: HepG2, 72 h.
In the next test the test system is HeLa. Kind of test: Cytotoxicity against human HeLa cells assessed as growth inhibition after 72 hrs by CCK-8 assay. The class given is functional, cell-based.
The test system of the next test is COLO 205. Kind of test: Cytotoxicity against human COLO205 cells assessed as growth inhibition by MTT assay. The class given is functional, cell-based.

Activity calls are given as the source filed them. The calls are words filed in the database; no cut-off is given here.

For `CNC(=O)Nc1nc2cc(Oc3cccc(C#N)c3)ccc2[nH]1`, the outcome at Tubulin (Homo sapiens) [1] was Active. Besides, at Tubulin (Homo sapiens) [2], the Activity entry is “Dose-dependent effect”.
Turning to `CC(=O)O[C@H]1C(=O)[C@@]2(C)[C@H]([C@H](OC(=O)c3ccccc3)[C@]3(O)C[C@H](OC(=O)[C@H](O)[C@@H](NC(=O)c4ccccc4)c4ccccc4)C(C)=C1C3(C)C)[C@]1(OC(C)=O)CO[C@@H]1C[C@@H]2O` [PACLITAXEL], the IC50 amounted to 9 nM in test [3]; 4 nM in the test with K562; 7 nM with A-431; 10 nM in the test on NCI-H460; 990 nM in the test on HepG2; 410 nM in the test on HeLa. The concentration for half-maximal inhibition (IC50) in the test on COLO 205 was found to be 3 nM.
Regarding `COc1cc2c(c(OC)c1OC)-c1ccc(OC)c(=O)cc1[C@@H](NC(C)=O)CC2` [COLCHICINE], the IC50 stood at 7 nM in [3]; 1 nM in the test with K562; 8 nM in the test with A-431; 21 nM in the test with NCI-H460; 1710 nM with HepG2; 704 nM with HeLa. The IC50 in the test on COLO 205 was determined as 3 nM.
As to `O=C(Cc1ccccc1)Nc1nc2cc(Oc3ccccc3)ccc2[nH]1`, the IC50 in the test with NCI-H460 was > 10000 nM; in the test with COLO 205, 11400 nM.
